Reference: patent US20250100996A1, “HETEROCYCLOALKYL AND HETEROARYL COMPOUNDS AND PHARMACEUTICAL COMPOSITIONS THAT MODULATE IKZF2” (Plexium, Inc., priority 2021, published 2025)

Columns and labels:
[1] = biological target: T1, human E3 ligase component cereblon (CRBN) (Homo sapiens, UniProt Q96SW2); experiment: Cereblon (CRBN) target engagement, NanoBRET TE Intracellular E3 Ligase Assay in transfected HEK-293T cells; conditions: read-out: CRBN Binding EC50
T1 construct: host or cells: HEK293T
How it was run: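 Tracer displacement was read as the 610/450 nm BRET signal after 2 h at 37° C with an 11-point dilution series, typically 10 μM to 100 pM. Live HEK-293T cells expressed NanoLuc fused N-terminal to human CRBN together with DDB1. IC50 was fitted with a four-parameter logistic model.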

[2] = biological target: T2, IKZF2 (Helios) (Homo sapiens, UniProt Q96SW2+Q9UKS7); experiment: IKZF2 reporter degradation assay (HEK 293T IKZF2-mNeonGreen reporter cell line); assay type: cell-based; conditions: HEK-293T, 24 h, @ 1 μM, HEK 293T IKZF2-mNeonGreen reporter, 24 hours incubation
T2 construct: Leu-Asp junction (codons ctcgac before the linker); mScarlet (behind P2A) (C, cleaved yes); expressed in transfected cells
How it was run: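 Cells were seeded overnight and then dosed with DMSO dilutions of compound. After 24 h, the plates were imaged live in the FITC and TRITC channels. The fraction of reporter-positive cells was plotted and fitted to a four-parameter logistic curve to give DC50.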

T2 sequence (Q9UKS7 whole entry): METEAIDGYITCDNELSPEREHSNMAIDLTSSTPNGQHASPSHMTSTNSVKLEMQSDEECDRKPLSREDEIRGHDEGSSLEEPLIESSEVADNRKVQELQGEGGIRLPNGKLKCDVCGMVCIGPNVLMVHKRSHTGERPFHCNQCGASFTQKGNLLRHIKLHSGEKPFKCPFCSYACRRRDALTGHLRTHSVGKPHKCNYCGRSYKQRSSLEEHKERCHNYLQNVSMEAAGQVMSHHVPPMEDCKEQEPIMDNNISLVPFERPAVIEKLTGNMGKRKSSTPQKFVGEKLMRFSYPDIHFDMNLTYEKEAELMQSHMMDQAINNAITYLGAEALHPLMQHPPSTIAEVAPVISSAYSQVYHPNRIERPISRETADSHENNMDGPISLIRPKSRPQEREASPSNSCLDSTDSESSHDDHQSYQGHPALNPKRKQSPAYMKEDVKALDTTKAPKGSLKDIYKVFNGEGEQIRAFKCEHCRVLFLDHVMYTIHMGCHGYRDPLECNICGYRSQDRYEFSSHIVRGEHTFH
T2 sequence (Q96SW2 whole entry): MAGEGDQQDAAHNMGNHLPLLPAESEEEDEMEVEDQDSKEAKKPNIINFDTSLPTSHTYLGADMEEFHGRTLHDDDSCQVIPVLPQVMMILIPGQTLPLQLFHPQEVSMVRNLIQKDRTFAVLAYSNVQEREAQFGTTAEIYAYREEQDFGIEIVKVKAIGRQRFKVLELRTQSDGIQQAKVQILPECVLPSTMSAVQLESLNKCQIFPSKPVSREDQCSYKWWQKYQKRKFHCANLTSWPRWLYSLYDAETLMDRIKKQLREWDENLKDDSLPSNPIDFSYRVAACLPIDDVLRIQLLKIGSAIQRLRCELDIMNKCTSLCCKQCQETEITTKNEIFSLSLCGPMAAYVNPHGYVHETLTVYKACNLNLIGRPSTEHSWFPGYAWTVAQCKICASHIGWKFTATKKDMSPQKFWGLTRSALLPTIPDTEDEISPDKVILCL
T2 sequence (Q16531 whole entry partner): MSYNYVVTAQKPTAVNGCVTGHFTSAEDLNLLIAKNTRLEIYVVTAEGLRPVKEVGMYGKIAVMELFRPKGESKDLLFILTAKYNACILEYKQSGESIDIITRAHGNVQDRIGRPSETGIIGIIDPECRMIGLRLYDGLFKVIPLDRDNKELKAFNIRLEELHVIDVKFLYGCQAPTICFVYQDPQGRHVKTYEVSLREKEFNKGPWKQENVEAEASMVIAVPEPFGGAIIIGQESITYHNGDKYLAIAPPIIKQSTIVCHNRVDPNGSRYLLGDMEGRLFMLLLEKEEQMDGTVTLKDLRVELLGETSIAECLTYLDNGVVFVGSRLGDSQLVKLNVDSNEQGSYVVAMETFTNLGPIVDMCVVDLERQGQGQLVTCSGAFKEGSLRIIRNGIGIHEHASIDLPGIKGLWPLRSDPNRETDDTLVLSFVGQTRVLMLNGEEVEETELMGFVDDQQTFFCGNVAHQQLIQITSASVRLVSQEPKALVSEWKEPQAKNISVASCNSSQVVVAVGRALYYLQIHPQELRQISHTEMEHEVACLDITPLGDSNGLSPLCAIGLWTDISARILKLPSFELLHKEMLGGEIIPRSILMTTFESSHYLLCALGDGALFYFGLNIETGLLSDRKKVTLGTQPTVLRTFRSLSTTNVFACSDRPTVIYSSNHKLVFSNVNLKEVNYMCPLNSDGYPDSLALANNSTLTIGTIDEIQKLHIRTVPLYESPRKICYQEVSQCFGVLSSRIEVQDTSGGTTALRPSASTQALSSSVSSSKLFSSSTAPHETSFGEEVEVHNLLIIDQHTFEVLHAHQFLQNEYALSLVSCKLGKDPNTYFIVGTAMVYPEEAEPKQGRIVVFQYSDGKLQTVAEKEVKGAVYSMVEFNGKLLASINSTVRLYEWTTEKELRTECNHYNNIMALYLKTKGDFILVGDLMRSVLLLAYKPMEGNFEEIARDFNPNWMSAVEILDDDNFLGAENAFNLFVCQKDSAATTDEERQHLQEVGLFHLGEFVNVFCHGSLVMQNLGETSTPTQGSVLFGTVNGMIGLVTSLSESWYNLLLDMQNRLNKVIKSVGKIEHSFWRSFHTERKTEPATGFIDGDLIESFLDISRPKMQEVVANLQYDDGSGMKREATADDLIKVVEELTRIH
T1 sequence (Q96SW2 whole entry): as the sequence (Q96SW2 whole entry) above
T1 sequence (Q16531 whole entry partner): as the sequence (Q16531 whole entry partner) above

Row | Compound | EC50 [1] [nM] | inhibition at 1 µM [2] [%]
1 | N#CC1(C(=O)N2CCC(C3CN([C@H]4CCCC[C@@H]4Oc4ccc5c(c4)CN(C4CCC(=O)NC4=O)C5=O)C3)CC2)CC1 (stereo partly drawn) [Compound 27-A, 1-(4-(1-((1S,2S)-2-((2-(2,6-dioxopiperidin-3-yl)-1-oxoisoindolin-5-yl)oxy)cyclohexyl)azetidin-3-yl)piperidine-1-carbonyl)cyclopropane-1-carbonitrile] | 10 | 84.6
2 | CC1(C(=O)N2CCC(C3CN([C@H]4CCCC[C@@H]4Oc4ccc5c(c4)CN(C4CCC(=O)NC4=O)C5=O)C3)CC2)CC1 (stereo partly drawn) [Compound 31-A, 3-(5-(((1S,2S)-2-(3-(1-(1-methylcyclopropane-1-carbonyl)piperidin-4-yl)azetidin-1-yl)cyclohexyl)oxy)-1-oxoisoindolin-2-yl)piperidine-2,6-dione] | 6 | 88.2
3 | O=C1CCC(N2Cc3cc(O[C@H]4CCCC[C@@H]4N4CC(C5CCN(C(=O)CC6CC6)CC5)C4)ccc3C2=O)C(=O)N1 (stereo partly drawn) [Compound 34-A, 3-(5-(((1S,2S)-2-(3-(1-(2-cyclopropylacetyl)piperidin-4-yl)azetidin-1-yl)cyclohexyl)oxy)-1-oxoisoindolin-2-yl)piperidine-2,6-dione] | 10 | 88
4 | CC1(C(=O)N2CCC(C3CN([C@H]4CCCC[C@@H]4Oc4ccc5c(c4)CN(C4CCC(=O)NC4=O)C5=O)C3)CC2)CCCC1 (stereo partly drawn) [Compound 33-A, 3-(5-(((1S,2S)-2-(3-(1-(1-methylcyclopentane-1-carbonyl)piperidin-4-yl)azetidin-1-yl)cyclohexyl)oxy)-1-oxoisoindolin-2-yl)piperidine-2,6-dione] | 7 | 88.4
5 | O=C1CCC(N2Cc3cc(O[C@H]4CCCC[C@@H]4N4CC(C5CCOCC5F)C4)ccc3C2=O)C(=O)N1 (stereo partly drawn) [Compound 55-A, 3-(5-(((1S,2S)-2-(3-(3-fluorotetrahydro-2H-pyran-4-yl)azetidin-1-yl)cyclohexyl)oxy)-1-oxoisoindolin-2-yl)piperidine-2,6-dione] | 14 | 83.8
6 | CC1(C(=O)N2CCC(C3CN([C@H]4CCCC[C@@H]4Oc4ccc5c(c4)CN(C4CCC(=O)NC4=O)C5=O)C3)CC2)COC1 (stereo partly drawn) [Compound 29-A, 3-(5-(((1S,2S)-2-(3-(1-(3-methyloxetane-3-carbonyl)piperidin-4-yl)azetidin-1-yl)cyclohexyl)oxy)-1-oxoisoindolin-2-yl)piperidine-2,6-dione] | 67 | 83.2
7 | O=C1CCC(N2Cc3cc(O[C@H]4CCCC[C@@H]4N4CC(C5CCOC5)C4)ccc3C2=O)C(=O)N1 (stereo partly drawn) [Compound 14-A, 3-(1-oxo-5-(((1S,2S)-2-(3-(tetrahydrofuran-3-yl)azetidin-1-yl)cyclohexyl)oxy)isoindolin-2-yl)piperidine-2,6-dione] | 39 | 67.4
8 | CC1CC1C(=O)N1CCC(C2CN([C@H]3CCCC[C@@H]3Oc3ccc4c(c3)CN(C3CCC(=O)NC3=O)C4=O)C2)CC1 (stereo partly drawn) [Compound 35-A, 3-(5-(((1S,2S)-2-(3-(1-(2-methylcyclopropane-1-carbonyl)piperidin-4-yl)azetidin-1-yl)cyclohexyl)oxy)-1-oxoisoindolin-2-yl)piperidine-2,6-dione] | 8 | 88.2

The next compounds have a lower EC50 [1] than those just listed; values first:

Row | EC50 [1] [nM] | inhibition at 1 µM [2] [%] | Compound
9 | 5 | 84.7 | O=C1CCC(N2Cc3cc(O[C@H]4CCCC[C@@H]4N4CC(C5CCN(C(=O)C6CC(F)(F)C6)CC5)C4)ccc3C2=O)C(=O)N1 (stereo partly drawn) [Compound 32-A, 3-(5-(((1S,2S)-2-(3-(1-(3,3-difluorocyclobutane-1-carbonyl)piperidin-4-yl)azetidin-1-yl)cyclohexyl)oxy)-1-oxoisoindolin-2-yl)piperidine-2,6-dione]
10 | 4 | 84.4 | N#CC1(C(=O)N2CCC(C3CN([C@H]4CCCC[C@@H]4Oc4ccc5c(c4)CN(C4CCC(=O)NC4=O)C5=O)C3)CC2)CCC1 (stereo partly drawn) [Compound 30-A, 1-(4-(1-((1S,2S)-2-((2-(2,6-dioxopiperidin-3-yl)-1-oxoisoindolin-5-yl)oxy)cyclohexyl)azetidin-3-yl)piperidine-1-carbonyl)cyclobutane-1-carbonitrile]
11 | 3 | 87.3 | O=C1CCC(N2Cc3cc(O[C@H]4CCCC[C@@H]4N4CC(C5CCN(C(=O)C6(F)CC6)CC5)C4)ccc3C2=O)C(=O)N1 (stereo partly drawn) [Compound 42-A, 3-(5-(((1S,2S)-2-(3-(1-(1-fluorocyclopropane-1-carbonyl)piperidin-4-yl)azetidin-1-yl)cyclohexyl)oxy)-1-oxoisoindolin-2-yl)piperidine-2,6-dione]
12 | 3 | 82.5 | CC12CC(C(=O)N3CCC(C4CN([C@H]5CCCC[C@@H]5Oc5ccc6c(c5)CN(C5CCC(=O)NC5=O)C6=O)C4)CC3)(C1)C2 (stereo partly drawn) [Compound 28-A, 3-(5-(((1S,2S)-2-(3-(1-(3-methylbicyclo[1.1.1]pentane-1-carbonyl)piperidin-4-yl)azetidin-1-yl)cyclohexyl)oxy)-1-oxoisoindolin-2-yl)piperidine-2,6-dione]
13 | 3 | 87.5 | O=C1CCC(N2Cc3cc(O[C@H]4CCCC[C@@H]4N4CC(c5ccc6cccnc6c5)C4)ccc3C2=O)C(=O)N1 (stereo partly drawn) [Compound 87-B, 3-(1-oxo-5-(((1S,2S)-2-(3-(quinolin-7-yl)azetidin-1-yl)cyclohexyl)oxy)isoindolin-2-yl)piperidine-2,6-dione]
14 | 3 | 85.4 | O=C1CCC(N2Cc3cc(O[C@H]4CCCC[C@@H]4N4CC(C5CCN(S(=O)(=O)C6CCC6)CC5)C4)ccc3C2=O)C(=O)N1 (stereo partly drawn) [Compound 57-A, 3-(5-(((1S,2S)-2-(3-(1-(cyclobutylsulfonyl)piperidin-4-yl)azetidin-1-yl)cyclohexyl)oxy)-1-oxoisoindolin-2-yl)piperidine-2,6-dione]
